# Measured values published in patent publication US11787762B2, “Tetralin and tetrahydroquinoline compounds as inhibitors of HIF-2alpha” (ARCUS BIOSCIENCES, INC., priority 2020, dated 2023).
# Columns and labels:
# [1] = target: T1, Histidine tagged HIF-2α protein containing PAS-B domain (240-350) (Homo sapiens, UniProt Q99814); test: HIF-2α Scintillation Proximity Assay (SPA) binding assay; conditions: 50 nM HIF-2α protein, 25 nM 3H-tracer
# T1 construct: HIF-2α protein containing PAS-B domain (240-350); made in house
# T1 sequence (Q99814 240-350): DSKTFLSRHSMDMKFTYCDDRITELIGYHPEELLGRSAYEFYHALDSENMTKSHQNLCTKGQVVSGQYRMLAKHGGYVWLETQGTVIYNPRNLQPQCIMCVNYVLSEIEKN
# Description: HIF-2α Scintillation Proximity Assay (SPA) Binding Assay:
# Tritium labeled compound N-(3-chlorophenyl)-4-nitro-2,1,3-benzoxadiazol-5-amine was obtained from American Radiolabeled Chemicals Inc. and copper chelate PVT SPA beads were from PerkinElmer (Cat #RPNQ0095). Histidine tagged HIF-2α protein containing PAS-B domain (240-350) was prepared and purified in house.
# Compounds solubilized in DMSO were dispensed into a white 384-well polystyrene non-binding flat clear bottom plate (Greiner Bio-One, Cat #781903) using an HP D300 dispenser. Ten microliters of HIS-tagged HIF-2α protein in buffer (25 mM Tris-HCl, pH 7.4, 150 mM NaCl, 0.15% BSA and 0.001% Tween 20) was added to the compound wells and allowed to incubate for 1 hour at room temperature. Ten microliters of SPA bead mix were added to the wells and incubated for an additional 45 minutes, followed by 10 ul of ^3H-tracer solution. Final assay conditions comprised 50 nM HIF-2α protein, 25 nM radiolabeled tracer and 3 ug beads per well with compounds in 2% DMSO. The plate was read using a MicroBeta Microplate Counter (PerkinElmer) for luminescence detection. The IC50 values of the test compounds were determined from compound dose response curves fitted using a standard four parameter fit equation and are reported in Table 1, Table 2, and Table 3.
# HIF-2α = target: T2, HIF-2α (Homo sapiens, UniProt Q99814); test: HIF-2α luciferase reporter assay in HIF-Luc-786-O cells; assay type: cell-based
# T2 construct: host or cells: 786-O cells stably transduced with Cignal Lenti HIF Luc Reporter (only the reporter was introduced, not HIF-2α)
# T2 sequence (Q99814 whole entry): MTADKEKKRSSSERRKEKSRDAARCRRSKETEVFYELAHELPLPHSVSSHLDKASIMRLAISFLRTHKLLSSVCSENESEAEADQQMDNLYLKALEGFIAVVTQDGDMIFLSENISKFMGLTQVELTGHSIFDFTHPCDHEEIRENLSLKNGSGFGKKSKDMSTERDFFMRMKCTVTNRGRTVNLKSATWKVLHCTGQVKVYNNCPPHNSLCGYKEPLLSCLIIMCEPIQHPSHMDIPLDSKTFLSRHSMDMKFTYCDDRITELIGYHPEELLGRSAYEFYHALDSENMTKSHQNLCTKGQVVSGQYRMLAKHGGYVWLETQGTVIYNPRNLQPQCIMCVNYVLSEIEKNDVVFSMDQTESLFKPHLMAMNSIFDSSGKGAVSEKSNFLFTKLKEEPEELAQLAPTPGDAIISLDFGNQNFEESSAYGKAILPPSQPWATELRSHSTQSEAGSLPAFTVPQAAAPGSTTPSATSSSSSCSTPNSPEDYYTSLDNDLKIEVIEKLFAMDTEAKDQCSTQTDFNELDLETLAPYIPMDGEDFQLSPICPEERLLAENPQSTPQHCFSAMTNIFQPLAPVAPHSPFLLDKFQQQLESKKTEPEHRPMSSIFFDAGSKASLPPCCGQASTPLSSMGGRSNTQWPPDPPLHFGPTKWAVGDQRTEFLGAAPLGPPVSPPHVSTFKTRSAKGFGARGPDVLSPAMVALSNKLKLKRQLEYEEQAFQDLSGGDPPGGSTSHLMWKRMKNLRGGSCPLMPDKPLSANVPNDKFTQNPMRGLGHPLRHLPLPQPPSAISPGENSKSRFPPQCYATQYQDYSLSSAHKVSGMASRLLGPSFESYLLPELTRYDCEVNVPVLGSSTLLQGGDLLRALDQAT
# In short: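 786-O cells stably carrying a HIF-responsive luciferase reporter, 20,000/well in OptiMem with 1% DMSO, exposed to compound up to 50 uM for 20 h at 37 °C. ONE-Glo luminescence normalised to DMSO and no-cell controls; IC50 by four-parameter fit.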
SMILES,IC50 ([1]; Table 1) [µM],"IC50 (HIF-2α; Table 1, 20 hours incubation) [µM]",also measured
"N#Cc1cc(F)cc2c1[C@@H](c1ccc(C(F)(F)F)c(Cl)c1C#N)CC[C@H]2F [Example 138, (5R,8R)-8-[3-chloro-2-cyano-4-(trifluoromethyl)phenyl]-3,5-difluoro-5,6,7,8-tetrahydronaphthalene-1-carbonitrile]",,,"IC50 ([1]; Table 2): > 1 µM; IC50 (HIF-2α; Table 2, 20 hours incubation): 0.1 to 1 µM"
O=S(=O)(c1ccc([C@@H]2c3c(F)cc(F)cc3CC[C@@H]2O)c2c1[C@H](O)[C@H](F)C2)C(F)(F)F [Example 101],0.1 to 1,> 1,
CC(C)(O)c1cc(N2CCCc3cc(F)cc(F)c32)ccc1S(C)(=O)=O [Example 55],> 1,> 1,
CC1(C)CC[C@H](c2ccc(S(=O)(=O)C(F)(F)F)c3c2C[C@@H](F)[C@H]3O)c2c(C#N)cc(F)cc21 [Example 114],< 0.1,< 0.1,
N#Cc1cc(F)cc2c1N(c1ccc(C(F)(F)F)c(Cl)c1C#N)CCC2 [Example 29],0.1 to 1,0.1 to 1,
N#Cc1ccc2c(c1)N(c1ccc(S(=O)(=O)C(F)(F)F)cc1[N+](=O)[O-])CCC2 [Example 65],> 1,> 1,
O=S(=O)(c1ccc(N2CCCc3cc(F)cc(F)c32)c(Cl)c1CO)C(F)(F)F [Example 83],> 1,> 1,
O=S(=O)(c1ccc(N2CCCc3cc(F)cc(F)c32)c2c1[C@H](O)[C@H](F)C2)C(F)(F)F [Example 33],0.1 to 1,0.1 to 1,
"CS(=O)(=O)c1ccc([C@H]2CCCc3cc(F)cc(C#N)c32)c2c1[C@H](O)[C@H](F)[C@@H]2F [Example 140, (8R)-8-[(1S,2S,3R)-2,3-difluoro-1-hydroxy-7-methylsulfonyl-2,3-dihydro-1H-inden-4-yl]-3-fluoro-5,6,7,8-tetrahydronaphthalene-1-carbonitrile]",,,"IC50 ([1]; Table 2): < 0.1 µM; IC50 (HIF-2α; Table 2, 20 hours incubation): < 0.1 µM"
O=[N+]([O-])c1cc(C(O)C(F)(F)F)ccc1N1CCCc2cc(F)cc(F)c21 (stereo not shown) [Example 84],> 1,> 1,
"CS(=O)(=O)c1ccc(C2CCCc3cc(F)cc(F)c32)c(Cl)c1C#N (stereo not shown) [Example 1, 2-chloro-3-(6,8-difluoro-1,2,3,4-tetrahydronaphthalen-1-yl)-6-methanesulfonylbenzonitrile]",0.1 to 1,> 1,
"N#Cc1cc(F)cc2c1[C@@H](c1ccc(S(=O)(=O)C(F)(F)F)c3c1C[C@@H](F)[C@H]3O)CC[C@@H]2F [Example 136, (5S,8R)-3,5-Difluoro-8-[(1S,2R)-2-fluoro-1-hydroxy-7-(trifluoromethylsulfonyl)-2,3-dihydro-1H-inden-4-yl]-5,6,7,8-tetrahydronaphthalene-1-carbonitrile]",,,"IC50 ([1]; Table 2): < 0.1 µM; IC50 (HIF-2α; Table 2, 20 hours incubation): < 0.1 µM"
"N#Cc1ccccc1-c1ccc([C@H]2CC[C@H](F)c3cc(F)cc(C#N)c32)c2c1[C@H](O)C(F)(F)C2 [Example 162, (5S,8R)-8-[(1S)-7-(2-cyanophenyl)-2,2-difluoro-1-hydroxy-1,3-dihydroinden-4-yl]-3,5-difluoro-5,6,7,8-tetrahydronaphthalene-1-carbonitrile]",,,"IC50 ([1]; Table 3): < 0.1 µM; IC50 (HIF-2α; Table 3, 20 hours incubation): < 0.1 µM"
COC(=O)c1c(S(=O)(=O)C(F)(F)F)ccc(N2CCCc3cc(F)cc(F)c32)c1Cl [Example 85],> 1,> 1,
CS(=O)(=O)c1ccc([C@@H]2CNCc3cc(F)cc(F)c32)c2c1[C@H](O)C(F)(F)C2 [Example 107],> 1,> 1,
O=S1(=O)c2ccc(N3CCCc4cc(F)cc(F)c43)c(Cl)c2C(O)C1(F)F (stereo not shown) [Example 52],0.1 to 1,> 1,
"N#Cc1c(S(=O)(=O)C(F)(F)F)ccc(N2CCCc3cc(F)cc(F)c32)c1Cl [Example 13, 2-chloro-3-(6,8-difluoro-1,2,3,4-tetrahydroquinolin-1-yl)-6-trifluoromethanesulfonylbenzonitrile]",0.1 to 1,> 1,
Cc1cnn(C)c1-c1ccc([C@H]2CC[C@H](F)c3cc(F)cc(C#N)c32)c2c1[C@H](O)[C@H](F)C2 [Example 152],,,"IC50 ([1]; Table 3): < 0.1 µM; IC50 (HIF-2α; Table 3, 20 hours incubation): < 0.1 µM"
"Cc1c(N2CCC(F)(F)c3cc(F)cc(C#N)c32)cnc(C(C)(F)F)c1F [Example 126, 1-[6-(1,1-Difluoroethyl)-5-fluoro-4-methylpyridin-3-yl]-4,4,6-trifluoro-2,3-dihydroquinoline-8-carbonitrile]",,,"IC50 ([1]; Table 2): < 0.1 µM; IC50 (HIF-2α; Table 2, 20 hours incubation): < 0.1 µM"
"N#Cc1cc(F)cc2c1N(c1ccc(S(=O)(=O)C(F)(F)F)c(C#N)c1Cl)CCC2 [Example 10, 1-(2-chloro-3-cyano-4-trifluoromethanesulfonylphenyl)-6-fluoro-1,2,3,4-tetrahydroquinoline-8-carbonitrile]",< 0.1,< 0.1,
